Experimental data reported in patent US9908890B2, “Selective inhibitors of constitutive androstane receptor” (ST. JUDE CHILDREN'S RESEARCH HOSPITAL, priority 2014, dated 2018).

Key:
GST-hCAR-LBD = molecular target: T1, GST-hCAR-LBD (Homo sapiens, UniProt Q14994); test: CoAct binding inverse agonist assay (LanthaScreen TR-FRET, fluorescent PGC-1α coactivator recruitment/repression); format: biochemical
T1 construct: purchased Life Technologies (Carlsbad, Calif.) or Invitrogen (Carlsbad, Calif.)
T1 sequence (Q14994 109-352 limits assumed): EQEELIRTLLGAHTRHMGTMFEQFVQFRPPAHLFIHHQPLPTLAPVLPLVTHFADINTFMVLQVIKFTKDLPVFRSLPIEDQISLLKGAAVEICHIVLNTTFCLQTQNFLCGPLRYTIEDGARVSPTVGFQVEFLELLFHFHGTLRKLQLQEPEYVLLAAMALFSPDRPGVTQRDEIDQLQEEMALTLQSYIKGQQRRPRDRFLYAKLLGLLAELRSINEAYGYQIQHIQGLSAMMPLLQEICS

[1] = test system: FXR, GR, LXRα, LXRβ, PPARγ, RXRα, RXRβ, VDR; test: GeneBLAzer nuclear receptor assays; format: cell-based; conditions: 18 μM
Protocol: FIG. 3B-FIG. 31 show representative data for treatment of GeneBLAzer® cells treated with DMSO (negative control), a predetermined concentration of the indicated nuclear receptor (“NR”) antagonist (positive control; concentration as detailed in Examples), or 18 μM of CINPA1 in the presence or absence the indicated NR agonist (i.e., indicated below treatments). NR-mediated β-lactamase activity was measured as a FRET ratio after 24 h treatment. Data is presented as % Activity, determined by setting the maximum FRET signal obtained for each receptor (in the respective agonist+DMSO wells) to 100%. eGugg=e Guggulsterone, Feno=Fenofibrate, GW9=GW9662, 22HC=22(S)-hydroxycholesterol, 9-cis RA=9-cis retinoic acid.
GeneBLAzer® cells individually expressing the ligand-binding domains of either FXR, GR, LXRα, LXRβ, PPARγ, RXRα, RXRβ, or VDR fused to the GAL4-DNA binding domain (GAL4-DBD) were obtained from Life Technologies (Li, G., et al. (2012) Tox. Appl. Pharm. 258, 268-274; and Yu, D. D., et al. (2013) Bioorg. Med. Chem 21, 4266-4278). Upon activation with the respective agonist, β-lactamase is expressed under the transcriptional control of an Upstream Activator Sequence (UAS), and a FRET-based substrate (CCF2-AM) is used to measure the enzyme activity of β-lactamase.

hCAR1 = molecular target: T2, hCAR1 (Homo sapiens, UniProt Q14994); test: Cell-based inverse agonist assay (CYP2B6-luciferase reporter in HepG2 cells transfected with hCAR1); conditions: 24 h treatment; read-out: IC50, inhibition of CAR-mediated CYP2B6-luciferase activity
T2 construct: expressed in transfected cells; host or cells: HepG2 (transient transfection)
T2 sequence (Q14994 1-348 isoform Q14994-2): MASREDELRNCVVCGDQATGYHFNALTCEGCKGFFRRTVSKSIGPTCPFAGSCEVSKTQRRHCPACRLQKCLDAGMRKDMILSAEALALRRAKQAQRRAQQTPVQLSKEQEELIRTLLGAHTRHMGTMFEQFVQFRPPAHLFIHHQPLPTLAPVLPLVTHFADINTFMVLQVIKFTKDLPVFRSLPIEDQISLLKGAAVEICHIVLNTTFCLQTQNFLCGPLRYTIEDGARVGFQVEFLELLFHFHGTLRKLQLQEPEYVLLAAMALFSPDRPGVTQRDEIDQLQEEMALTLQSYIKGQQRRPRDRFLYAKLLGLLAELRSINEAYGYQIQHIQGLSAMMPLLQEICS
Protocol: HepG2 cells grown in flasks were transfected with Flag-hCAR1 and CYP2B6-luciferase reporter at a 1:3 ratio with Fugene HD (Promega) and incubated for 24 h. Cells were trypsinized and plated in 384-well plates (CulturPlate-384, PerkinElmer) at 5000 cells/well for the primary or secondary screening assays. Cells were treated with chemicals transferred by using a pintool 24 h prior to measuring reporter luciferase activity with SteadyLite firefly luciferase reagent and an EnVision plate reader (PerkinElmer). […] PXR activity was measured in HepG2 cells stably transfected with hPXR and CYP3A4-luciferase reporter (previously described as PXR Clonel cells, see Li, G., et al. (2012) Tox. Appl. Pharm. 258, 268-274; and Lin, W., et al. (2008) J. Biol. Chem. 283, 30650-30657). […] The luminescence signal was detected by using an Envision plate reader (PerkinElmer) and used to calculate the percentage of PXR activation. […] A flowchart of our screening strategy is illustrated in FIG. 1A. HepG2 cells were transiently transfected with pcDNA-hCAR1 and CYP2B6-luciferase plasmids and treated with varying concentrations of the test compounds in 384-well plates for 24 h, and CAR-mediated luciferase activity was measured. Twenty-five hits, defined as those displaying dose-responsive inhibitory effect on the constitutively active hCAR1, were selected and tested in various secondary screening assays. CINPA1 (FIG. 1B) was selected based on its potent inhibitory effect on hCAR1 and lack of detectable agonistic activity against PXR.

## CCOC(=O)Nc1ccc2c(c1)N(C(=O)CN(CC)CC)c1ccccc1CC2 [CINPA1]
GST-hCAR-LBD; dose response, FIG. 6A
  CAR-LBD interaction with PGC-1α coactivator peptide: efficiently inhibits
GST-hCAR-LBD; read-out: IC50 (CAR inverse agonistic activity)
  IC50: 690 nM
[1]; with NR agonist
  attenuation of agonist-induced receptor activation: did not attenuate the agonist-induced activation of any of the receptors tested
[1]; without agonist
  activation of nuclear receptors: did not activate any of the nuclear receptors tested
hCAR1
  IC50: 72 nM
